The test system of this test is U937 and OCI-AML2 cells. The experiment in a line: Flow cytometry-based CRISPR competition assay (RFP+/GFP+ ratio). The format is cell-based, human. As to the method:
To investigate the role of the mTOR signaling pathway in mediating Compound D sensitivity, a CRISPR competition assay was performed (see FIG. 6A). U937 cells stably expressing Cas9 were infected with a lentiviral vector expressing GFP and non-targeting sgRNA (sgNT), or lentiviral vectors expressing RFP and non-targeting sgRNA (sgNT), or lentiviral vectors expressing RFP and sgRNAs targeting MTOR, RICTOR or RAPTOR. Cells were then treated with DMSO or 100 nM Compound D. The RFP+/GFP+ ratio was monitored by flow cytometry every 2-3 days thereafter.
Next, CRISPR competition assays were conducted in U937 and OCI-AML2 cells as described above. Specifically, U937 cells stably expressing Cas9 were infected with lentiviral vector constitutively expressing GFP and non-targeting sgRNA (sgNT), or with lentiviral vectors constitutively expressing RFP and non-targeting sgRNA (sgNT) or sgRNAs targeting TSC1 or TSC2. Three days after infection, RFP and GFP cells were mixed at a 1:1 ratio and treated with DMSO, 1 μM Compound D, or 10 μM Compound D. The change of RFP+/GFP+ ratio was monitored by flow cytometry every 2-3 days thereafter. Similarly, OCI-AML2 cells stably expressing Cas9 were infected with lentiviral vector constitutively expressing GFP and non-targeting sgRNA (sgNT), or with lentiviral vectors constitutively expressing RFP and non-targeting sgRNA (sgNT) or sgRNAs targeting TSC1 or TSC2. Three days after infection, RFP and GFP cells were mixed at a 1:1 ratio and treated with DMSO, 0.1 μM Compound D, or […] Compound D. The change of RFP+/GFP+ ratio was monitored by flow cytometry every 2-3 days thereafter.
A CRISPR competition assay was performed as shown in the upper panel of FIG. 5A, and similarly to the assay described above. U937 cells stably expressing Cas9 were infected with a lentiviral vector constitutively expressing GFP and non-targeting sgRNA (sgNT), or with lentiviral vectors constitutively expressing RFP and non-targeting sgRNA (sgNT) or sgRNAs targeting GCN2. On day 2, RFP and GFP cells were mixed at a 1:1 ratio and treated with DMSO or 100 nM Compound D. The change of RFP+/GFP+ ratio was monitored by flow cytometry every 2-3 days thereafter.
Next, CRISPR competition assays were conducted in U937 and OCI-AML2 cells as described above. Specifically, U937 and OCI-AML2 cell lines were transduced with plenti-EF1á-Cas9-P2A-Blast, followed by Blasticidin selection to establish Cas9-expressing cell lines. U937-Cas9 and OCI-AML2-Cas9 cells were then transduced with pRSG17-U6-sgNT-1-UbiC-TagGFP2-2A-Puro, or pRSG16-U6-UbiC-TagRFP-2A-Puro vectors expressing sgNT-1, sgNC-1, sgNC-8 or gene-specific sgRNAs. Transduced cells were washed with 1×PBS 72 hours post-transduction. Cells were assessed for transduction via RFP or GFP fluorescence reporter expression. Once fluorescence reporter expression was confirmed, RFP- and GFP-transduced cells were mixed at a 1:1 ratio and seeded in 2 ml culture media per well in 12-well tissue culture plates at a cell density of 200,000 cells per mL, and treated with DMSO or an appropriate dose of Compound. Remaining cells underwent puromycin selection for 3-7 days and were harvested for immunoblot analysis to confirm gene knock-out. After seeding cells for culture in 12-well plates, 100 iL cell culture per well was removed for flow cytometric analysis as the baseline “Day 0” RFP- and GFP-positive percentages in each well. […]

Entries after “also recorded” stand apart in the source; their conditions may differ.

Data on one compound can be found in patent publication US20220389515A1, “USE OF BIOMARKERS TO PREDICT CLINICAL SENSITIVITY TO 2-(4-CHLOROPHENYL)-N-((2-(2,6-DIOXOPIPERIDIN-3-YL)-1-OXOISOINDOLIN-5-YL)METHYL)-2,2-DIFLUOROACETAMIDE” (priority 2019, published 2022).

With `O=C1CCC(N2Cc3cc(CNC(=O)C(F)(F)c4ccc(Cl)cc4)ccc3C2=O)C(=O)N1` (centres unmarked) [Compound D, 2-(4-chlorophenyl)-N-((2-(2,6-dioxopiperidin-3-yl)-1-oxoisoindolin-5-yl)methyl)-2,2-difluoroacetamide], the “response after TSC1 or TSC2 knockout” value (U937 1 μM or 10 μM, OCI-AML2 0.1 μM or 1 μM) is listed as “conferred a growth advantage in the presence of, but not in the absence of, Compound D; also recorded: increased resistance to Compound D”. In addition, the “growth inhibition after loss of GCN1, GCN2, ATF4 or DDIT4” value (U937 (10 μM) and OCI-AML2) is reported as “protected the cells against Compound D-induced growth inhibition”. Under “U937, 100 nM”, the “response of cells lacking GCN2” value is listed as “resistant to Compound D”; the “sensitivity after knockout of mTOR, Raptor and Rictor” value is given as “enhances U937 sensitivity to Compound D”. Besides, the “response after ILF2 or ILF3 knockout” value (U937 and OCI-AML2) is “led to Compound D resistance”.
